Laboratory results from patent US20250333394A1, “Tiparp Inhibitor Compounds” (AbbVie Inc., priority 2024, published 2025).
pEC50, pIC50: −log10 of the molar value.

What was measured:
DLD-1 parent cells = assay: CellTiter-Glo DLD-1 parent cell assay; type: cell-based; conditions: Homo sapiens, 144 h, 6 days, read-out: DLD-1 CTG EC50
Summary of the method: (§1)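 DLD-1 parent (500 cells/well) and DLD-1 BRCA2 (−/−) (1200 cells/well) cells in RPMI 1640 with 10% FBS exposed to compounds at 30 μM to 0.5 nM (3-fold dilutions) for 6 days at 37° C. Viability read by CellTiter-Glo luminescence on day 7.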

NCI-H1373 cells = assay: NCI-H1373 CellTiter-Glo cell assay for TIPARP inhibition; type: cell-based, human; conditions: Homo sapiens, NCI-H1373, 144 h; 6 days, 100 nM 10-Cl-BBQ in medium; read-out: NCI-H1373 CTG EC50
Summary of the method: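 NCI-H1373 cells (1000/well) grown in RPMI 1640 with 10% FBS and 100 nM 10-Cl-BBQ, exposed to compounds from 30 μM to 0.5 nM final in 3-fold steps for 6 days at 37° C. Cell number read on day 7 by CellTiter-Glo luminescence.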

TIPARP GST-(TEV) = TIPARP GST-(TEV) (Homo sapiens (Human), UniProt Q7Z3E1); assay: TR-FRET binding assay, TIPARP; conditions: for pIC50: TR-FRET, Probe 1, 2 hours incubation; for PARP1/TIPARP IC50 Ratio: ratio of PARP1 GST IC50 to TIPARP GST-(TEV) IC50
TIPARP GST-(TEV), sequence (Q7Z3E1 441-657): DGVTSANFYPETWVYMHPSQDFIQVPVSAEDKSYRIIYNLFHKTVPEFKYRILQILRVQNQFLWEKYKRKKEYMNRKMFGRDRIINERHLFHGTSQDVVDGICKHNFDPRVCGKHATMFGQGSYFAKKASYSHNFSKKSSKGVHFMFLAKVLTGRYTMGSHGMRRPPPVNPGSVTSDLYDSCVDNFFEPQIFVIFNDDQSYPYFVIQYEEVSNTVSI
Summary of the method: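 N-terminal GST-TEV-tagged human TIPARP with protein/probe mix in 50 mM Tris-HCl pH 8.0, 5 mM MgCl2, 5 µM ZnCl2, 1 mM DTT, 0.15% BSA, 0.01% Triton X-100, plus 1 nM Tb-anti-GST antibody. Compounds at 30 µM to 0.5 nM final, 3-fold steps. TR-FRET ratio read after 2 h at ambient temperature.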

PARP1 GST = PARP1 GST (Homo sapiens (Human), UniProt P09874); assay: TR-FRET binding assay, PARP1; conditions: Probe 2, 2 hours incubation
PARP1 GST, sequence (P09874 whole entry): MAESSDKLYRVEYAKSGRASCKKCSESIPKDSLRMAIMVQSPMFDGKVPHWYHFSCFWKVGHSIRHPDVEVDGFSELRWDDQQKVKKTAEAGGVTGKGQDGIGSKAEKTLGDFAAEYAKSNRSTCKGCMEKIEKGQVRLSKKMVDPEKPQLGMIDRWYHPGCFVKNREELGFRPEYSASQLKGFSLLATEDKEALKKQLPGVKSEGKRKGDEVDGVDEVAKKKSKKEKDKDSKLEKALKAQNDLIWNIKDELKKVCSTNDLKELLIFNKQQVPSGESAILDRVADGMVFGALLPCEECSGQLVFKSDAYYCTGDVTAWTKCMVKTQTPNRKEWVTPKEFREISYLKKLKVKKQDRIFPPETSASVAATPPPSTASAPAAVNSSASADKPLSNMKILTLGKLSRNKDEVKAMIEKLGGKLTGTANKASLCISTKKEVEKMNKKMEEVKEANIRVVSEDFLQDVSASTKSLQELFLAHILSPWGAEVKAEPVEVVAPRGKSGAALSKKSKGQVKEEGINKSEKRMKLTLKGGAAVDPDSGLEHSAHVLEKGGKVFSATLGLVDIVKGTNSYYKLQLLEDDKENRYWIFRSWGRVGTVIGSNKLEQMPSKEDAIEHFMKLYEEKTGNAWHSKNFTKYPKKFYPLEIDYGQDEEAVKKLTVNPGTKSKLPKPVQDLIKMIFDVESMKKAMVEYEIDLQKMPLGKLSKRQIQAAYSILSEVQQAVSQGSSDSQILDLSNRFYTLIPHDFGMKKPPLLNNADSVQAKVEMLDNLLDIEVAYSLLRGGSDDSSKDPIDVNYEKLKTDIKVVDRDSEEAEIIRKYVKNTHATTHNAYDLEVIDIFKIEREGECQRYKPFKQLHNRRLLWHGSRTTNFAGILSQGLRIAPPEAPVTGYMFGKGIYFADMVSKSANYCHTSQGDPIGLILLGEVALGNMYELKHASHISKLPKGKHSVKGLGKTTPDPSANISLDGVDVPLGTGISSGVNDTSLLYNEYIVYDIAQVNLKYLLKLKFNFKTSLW
Summary of the method: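 Serially diluted compounds, final 30 μM down to 0.5 nM, incubated 2 h at ambient temperature with GST-tagged protein/probe mix plus 1 nM Tb-anti-GST antibody. Buffer: 50 mM Tris-HCl pH 8.0, 5 mM MgCl2, 5 μM ZnCl2, 1 mM DTT, 0.15% BSA, 0.01% Triton X-100. Binding read as TR-FRET ratio.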

DLD-1 BRCA2 (−/−) cells = assay: CellTiter-Glo DLD-1 BRCA2 (−/−) cell assay for PARP1/2 inhibition; type: cell-based; conditions: Homo sapiens, 144 h, 6 days, read-out: DLD-1 BRCA2 (−/−) CTG EC50
Summary of the method: as §1

Row | Compound | pEC50 (DLD-1 parent cells) | pEC50 (NCI-H1373 cells) | pIC50 (TIPARP GST-(TEV)) | PARP1/TIPARP IC50 Ratio (TIPARP GST-(TEV)) | pIC50 (PARP1 GST) | pEC50 (DLD-1 BRCA2 (−/−) cells)
1 | C[C@@H]1CN(C(=O)[C@H]2C[C@@H](Cc3c[nH]c(=O)c(C(F)(F)F)c3)C2)C[C@H](C)N1c1ncc(C(C)(C)O)cn1 [Example 22, 5-{[(1s,3s)-3-{(3R,5S)-4-[5-(2-hydroxypropan-2-yl)pyrimidin-2-yl]-3,5-dimethylpiperazine-1-carbonyl}cyclobutyl]methyl}-3-(trifluoromethyl)pyridin-2(1H)-one] | < 4.52 | 7.57 | 8.55 | 975 | 5.56 | 5.04
2 | C[C@H]1CN(c2ncc(C(C)(C)O)cn2)CCN1C(=O)[C@H]1C[C@@H](Cc2c[nH]c(=O)c(C(F)(F)F)c2)C1 [Example 21, 5-{[(1R,3s)-3-{(2S)-4-[5-(2-hydroxypropan-2-yl)pyrimidin-2-yl]-2-methylpiperazine-1-carbonyl}cyclobutyl]methyl}-3-(trifluoromethyl)pyridin-2(1H)-one] | < 4.52 | 6.80 | 7.89 | 25.7 | 6.48 | 5.97
3 | C[C@@H]1CN(C(=O)[C@H]2C[C@@H](c3c[nH]c(=O)c(C(F)(F)F)c3)C2)CCN1c1ncc(C(C)(C)O)cn1 [Example 7, 5-[(1S,3s)-3-{(3R)-4-[5-(2-hydroxypropan-2-yl)pyrimidin-2-yl]-3-methylpiperazine-1-carbonyl}cyclobutyl]-3-(trifluoromethyl)pyridin-2(1H)-one] | < 4.52 | 7.14 | 8.42 | 417 | 5.80 | 4.76
4 | C[C@H]1CN(c2ncc(C(C)(C)O)cn2)CCN1C(=O)[C@H]1C[C@@H](c2c[nH]c(=O)c(C(F)(F)F)c2)C1 [Example 11, 5-[(1R,3s)-3-{(2S)-4-[5-(2-hydroxypropan-2-yl)pyrimidin-2-yl]-2-methylpiperazine-1-carbonyl}cyclobutyl]-3-(trifluoromethyl)pyridin-2(1H)-one] | 4.80 | 6.47 | 7.96 | 56.5 | 6.21 | 5.93
5 | C[C@@H]1CN(C(=O)[C@H]2C[C@@H](Cc3c[nH]c(=O)c(C(F)(F)F)c3)C2)CCN1c1ncc(C(F)(F)F)cn1 [Example 15, 5-{[(1S,3s)-3-{(3R)-3-methyl-4-[5-(trifluoromethyl)pyrimidin-2-yl]piperazine-1-carbonyl}cyclobutyl]methyl}-3-(trifluoromethyl)pyridin-2(1H)-one] | 4.99 | 7.83 | 8.67 | 194 | 6.38 | 5.86
6 | C[C@@H]1CN(c2ncc(C(F)(F)F)cn2)CCN1C(=O)[C@H]1C[C@@H](Cc2c[nH]c(=O)c(C(F)(F)F)c2)C1 [Example 12, 5-{[(1S,3s)-3-{(2R)-2-methyl-4-[5-(trifluoromethyl)pyrimidin-2-yl]piperazine-1-carbonyl}cyclobutyl]methyl}-3-(trifluoromethyl)pyridin-2(1H)-one] | 4.95 | 7.53 | 8.50 | 1160 | 5.44 | 5.26
